Assay results taken from paper PMC10412865 (Current Research in Toxicology, 2023).
Counter-ions that a name gives are not always drawn. Like-named read-outs stand apart in the source and are kept apart here.

Columns and labels:
[1] = system: CYP1A2 activity in HepaRG cells; test: CYP1A2 enzyme activity in differentiated HepaRG monolayers; assay type: cell-based, human; details: HepaRG, 48 h
[2] = system: CYP3A4 activity in HepaRG cells; details: 48 h
human recombinant CYP3A4 = human recombinant CYP3A4 (Homo sapiens, UniProt P08684); test: Human recombinant CYP3A4 Supersome inhibition assay; assay type: biochemical
Sequence of human recombinant CYP3A4 (P08684 whole entry): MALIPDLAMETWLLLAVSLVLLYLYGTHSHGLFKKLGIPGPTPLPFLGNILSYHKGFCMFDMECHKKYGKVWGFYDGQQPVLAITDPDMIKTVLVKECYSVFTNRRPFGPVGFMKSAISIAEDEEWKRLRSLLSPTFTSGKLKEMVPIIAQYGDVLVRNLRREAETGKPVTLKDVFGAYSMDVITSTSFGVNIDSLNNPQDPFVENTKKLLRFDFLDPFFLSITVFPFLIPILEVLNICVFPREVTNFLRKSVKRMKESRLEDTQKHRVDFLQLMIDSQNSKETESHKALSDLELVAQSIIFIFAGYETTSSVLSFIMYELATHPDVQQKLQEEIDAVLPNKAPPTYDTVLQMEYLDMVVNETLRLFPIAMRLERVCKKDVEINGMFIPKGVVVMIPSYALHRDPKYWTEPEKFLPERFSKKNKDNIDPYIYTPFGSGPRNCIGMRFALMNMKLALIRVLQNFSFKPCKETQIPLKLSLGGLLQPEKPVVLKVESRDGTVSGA

CYP1A2 = CYP1A2 enzyme activity in differentiated HepaRG monolayers; assay type: cell-based, human; details: human, differentiated HepaRG cell monolayers, probe luciferin-1A2 (6 µM)
human recombinant CYP1A2 = target: T1, human recombinant CYP1A2 (Homo sapiens, UniProt P05177); test: Human recombinant CYP1A2 Supersome inhibition assay; assay type: biochemical
T1 sequence (P05177 1-516): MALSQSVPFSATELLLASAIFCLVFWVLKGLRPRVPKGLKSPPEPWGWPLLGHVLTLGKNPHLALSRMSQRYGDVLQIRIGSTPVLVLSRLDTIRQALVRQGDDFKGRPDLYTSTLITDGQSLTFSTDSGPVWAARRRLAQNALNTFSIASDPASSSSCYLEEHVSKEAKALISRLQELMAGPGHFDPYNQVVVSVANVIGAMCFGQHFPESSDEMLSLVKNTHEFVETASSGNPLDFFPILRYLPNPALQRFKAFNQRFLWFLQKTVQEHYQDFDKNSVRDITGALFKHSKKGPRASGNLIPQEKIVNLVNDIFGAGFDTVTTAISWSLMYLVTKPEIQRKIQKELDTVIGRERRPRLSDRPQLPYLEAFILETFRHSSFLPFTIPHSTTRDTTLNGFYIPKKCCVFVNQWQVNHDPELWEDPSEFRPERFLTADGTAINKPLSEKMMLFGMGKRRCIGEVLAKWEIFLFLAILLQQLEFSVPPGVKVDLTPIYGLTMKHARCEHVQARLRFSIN

[3] = target: human recombinant CYP2C19 (Homo sapiens, UniProt P33261); test: Human recombinant CYP2C19 Supersome inhibition assay; assay type: biochemical
Sequence of human recombinant CYP2C19 (P33261 whole entry): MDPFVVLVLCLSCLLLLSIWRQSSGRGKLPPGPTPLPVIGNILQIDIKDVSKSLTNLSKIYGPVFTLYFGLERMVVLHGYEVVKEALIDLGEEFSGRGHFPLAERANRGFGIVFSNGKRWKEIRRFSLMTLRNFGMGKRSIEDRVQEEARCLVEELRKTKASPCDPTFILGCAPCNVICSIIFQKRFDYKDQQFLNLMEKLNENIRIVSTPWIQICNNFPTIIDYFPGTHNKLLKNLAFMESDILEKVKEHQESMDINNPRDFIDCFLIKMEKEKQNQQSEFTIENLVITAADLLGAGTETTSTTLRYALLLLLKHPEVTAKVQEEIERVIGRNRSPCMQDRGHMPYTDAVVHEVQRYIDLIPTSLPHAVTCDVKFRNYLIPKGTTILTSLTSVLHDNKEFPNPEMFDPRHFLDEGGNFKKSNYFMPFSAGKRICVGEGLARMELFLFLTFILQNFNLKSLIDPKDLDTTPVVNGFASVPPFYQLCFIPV

human recombinant CYP2E1 = human recombinant CYP2E1 (Homo sapiens, UniProt P05181); test: Human recombinant CYP2E1 Supersome inhibition assay; assay type: biochemical
Sequence of human recombinant CYP2E1 (P05181 whole entry): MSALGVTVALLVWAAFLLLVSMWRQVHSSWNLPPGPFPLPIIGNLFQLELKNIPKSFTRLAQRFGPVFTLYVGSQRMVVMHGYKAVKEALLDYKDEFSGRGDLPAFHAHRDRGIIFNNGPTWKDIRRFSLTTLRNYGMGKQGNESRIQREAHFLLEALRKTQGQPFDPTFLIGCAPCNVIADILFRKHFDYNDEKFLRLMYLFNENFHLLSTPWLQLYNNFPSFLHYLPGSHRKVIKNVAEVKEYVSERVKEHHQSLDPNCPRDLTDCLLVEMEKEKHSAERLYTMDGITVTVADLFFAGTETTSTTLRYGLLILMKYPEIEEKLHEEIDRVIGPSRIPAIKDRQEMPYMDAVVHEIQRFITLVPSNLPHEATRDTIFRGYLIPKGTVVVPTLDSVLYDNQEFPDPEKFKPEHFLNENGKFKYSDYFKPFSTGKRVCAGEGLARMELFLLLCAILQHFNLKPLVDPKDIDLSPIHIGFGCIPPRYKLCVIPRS

human recombinant CYP2B6 = target: T2, human recombinant CYP2B6 (Homo sapiens, UniProt P20813); test: Human recombinant CYP2B6 Supersome inhibition assay; assay type: biochemical
T2 sequence (P20813 1-491): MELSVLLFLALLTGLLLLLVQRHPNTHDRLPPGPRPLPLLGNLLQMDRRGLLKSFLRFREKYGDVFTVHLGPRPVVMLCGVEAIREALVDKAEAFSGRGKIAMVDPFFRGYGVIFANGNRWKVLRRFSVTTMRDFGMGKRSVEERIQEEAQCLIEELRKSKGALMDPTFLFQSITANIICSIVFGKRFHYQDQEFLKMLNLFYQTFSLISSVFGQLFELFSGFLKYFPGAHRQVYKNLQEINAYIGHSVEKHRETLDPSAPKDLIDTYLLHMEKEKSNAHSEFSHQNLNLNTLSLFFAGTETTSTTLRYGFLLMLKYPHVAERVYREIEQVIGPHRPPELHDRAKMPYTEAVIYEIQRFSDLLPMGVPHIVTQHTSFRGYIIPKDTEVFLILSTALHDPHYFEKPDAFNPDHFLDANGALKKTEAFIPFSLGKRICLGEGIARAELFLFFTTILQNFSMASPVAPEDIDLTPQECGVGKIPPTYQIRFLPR

[4] = humans, estimated average; ref Olsen et al. 2007; cited from earlier work
[5] = 1 nM PFAS in binary mixture with 10 µM BaP
[6] = 1 µM PFAS in binary mixture with 10 µM BaP
[7] = 1 nM PFAS in binary mixture with 10 µM rifampicin
[8] = 1 µM PFAS in binary mixture with 10 µM rifampicin

SMILES	CYP1A2 activity (% of the solvent control) ([1]; 1 nM PFAS alone)	CYP1A2 activity (% of the solvent control) [1, 5]	CYP1A2 activity (% of the solvent control) ([1]; 1 µM PFAS alone)	CYP1A2 activity (% of the solvent control) [1, 6]	CYP3A4 activity (% of the solvent control) ([2]; 1 nM PFAS alone)	CYP3A4 activity (% of the solvent control) [2, 7]	CYP3A4 activity (% of the solvent control) ([2]; 1 µM PFAS alone)	CYP3A4 activity (% of the solvent control) [2, 8]	IC50 (human recombinant CYP3A4)	activity at 48 h, 1 nM (CYP1A2)	activity at 48 h, 1 µM (CYP1A2)	IC50 (human recombinant CYP1A2)	IC50 [3]	IC50 (human recombinant CYP2E1)	IC50 (human recombinant CYP2B6)	half-life of serum elimination [4]
OCCC(F)(F)C(F)(F)C(F)(F)C(F)(F)C(F)(F)C(F)(F)F [6:2 FTOH, 6:2 Fluorotelomer alcohol]	168.4%	lower	148.4%	lower	no statistically significant differences	not statistically different from the inducer nor the solvent control	no statistically significant differences	not statistically different from the inducer nor the solvent control	–	–	–	–	–	–	–	–
O=C(O)C(F)(OC(F)(F)C(F)(F)C(F)(F)F)C(F)(F)F (centres unmarked) [HFPO-DA, Undecafluoro-2-methyl-3-oxahexanoic acid]	neither concentration of HFPO-DA nor PFHxS had a significant effect	decreased activity	neither concentration of HFPO-DA nor PFHxS had a significant effect	decreased activity	–	did not influence the CYP3A4 activity	–	did not influence the CYP3A4 activity	–	–	–	–	–	–	–	–
O=S(=O)(O)C(F)(F)C(F)(F)C(F)(F)C(F)(F)F [PFBS, Perfluorobutanesulfonic acid]	205.4%	130.9%	204.4%	128.5%	–	concentration-dependent decrease	–	–	–	–	–	–	–	–	–	–
O=C(O)C(F)(F)C(F)(F)C(F)(F)C(F)(F)C(F)(F)F [PFHxA, Perfluorohexanoic acid]	increased CYP1A2 activity	no significant differences	increased CYP1A2 activity	no significant differences	–	–	–	not in those exposed to the higher (1 µM) concentrations	–	–	–	–	–	–	–	–
O=S(=O)(O)C(F)(F)C(F)(F)C(F)(F)C(F)(F)C(F)(F)C(F)(F)F [PFHxS, Perfluorohexanesulfonic acid potassium salt]	no significant differences	–	no significant differences	–	–	significantly lower relative to rifampicin alone	–	significantly lower relative to rifampicin alone	> 100 µM	80.2%	122%	13.8 µM	51.6 µM	> 100 µM	> 100 µM	–
O=C(O)C(F)(F)C(F)(F)C(F)(F)C(F)(F)C(F)(F)C(F)(F)C(F)(F)F [PFOA, Perfluorooctanoic acid]	–	–	–	–	–	–	–	–	> 100 µM	–	–	> 100 µM	> 100 µM	> 100 µM	96.9 µM	3.5 years
